Experimental data reported in patent US10442803B2, “Tricyclic heterocycles as bet protein inhibitors” (Incyte Corporation, priority 2013, dated 2019).
pIC50: −log10 of the molar value. Where a name gives a salt, the structure may show the parent alone.

Test system: KMS.12.BM cells
Assay: KMS.12.BM cell viability assay
Assay type: cell-based
Details: 72 h; KMS.12.BM human myeloma cells, 3 days, Cell Titer-GLO ATP quantitation; read-out: KMS cellular IC50
Summary of the method: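 IC50 derived from luminescent ATP quantitation (Cell Titer-GLO) of viable cells after 3-day compound treatment. KMS.12.BM human myeloma line seeded at 5000 cells/well in RPMI with 10% FBS.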

`CCN1CCC(Nc2cc3c(cc(C)n3Cc3ccccc3)n3c(C)nnc23)CC1` [Example 212, 6-Benzyl-N-(1-ethylpiperidin-4-yl)-1,7-dimethyl-6H-pyrrolo[2,3-e][1,2,4]triazolo[4,3-a]pyridin-4-amine] and `Cc1cc2c(cc(NC3CCN(C(C)C)CC3)c3nnc(C)n32)n1Cc1ccccc1` [Example 213, 6-Benzyl-N-(1-isopropylpiperidin-4-yl)-1,7-dimethyl-6H-pyrrolo[2,3-e][1,2,4]triazolo[4,3-a]pyridin-4-amine] cannot be ordered by pIC50: ≥ 6.00 for the first, ≥ 6.00 for the second.

`Cc1cc2c(cc(NC3CCN(C(=O)OC(C)(C)C)CC3)c3nnc(C)n32)n1Cc1ccccc1` [Example 214, tert-Butyl 4-[(6-benzyl-1,7-dimethyl-6H-pyrrolo[2,3-e][1,2,4]triazolo[4,3-a]pyridin-4-yl)amino]piperidine-1-carboxylate] and `Cc1cc2c(cc(NC3CN(C(=O)OC(C)(C)C)C3)c3nnc(C)n32)n1Cc1ccccc1` [Example 244, tert-Butyl 3-(6-benzyl-1,7-dimethyl-6H-pyrrolo[2,3-e][1,2,4]triazolo[4,3-a]pyridin-4-ylamino)azetidine-1-carboxylate] cannot be ordered by pIC50: 5.00 to 6.00 for the first, ≥ 6.00 for the second.

`CC(=O)N1CCC(Nc2cc3c(cc(C)n3Cc3ccccc3)n3c(C)nnc23)CC1` [Example 216, N-(1-Acetylpiperidin-4-yl)-6-benzyl-1,7-dimethyl-6H-pyrrolo[2,3-e][1,2,4]triazolo[4,3-a]pyridin-4-amine] and `Cc1cc2c(cc(N[C@H]3CC[C@H](N)CC3)c3nnc(C)n32)n1Cc1ccccc1` [Example 217, trans-N-(6-Benzyl-1,7-dimethyl-6H-pyrrolo[2,3-e][1,2,4]triazolo[4,3-a]pyridin-4-yl)cyclohexane-1,4-diamine] cannot be ordered by pIC50: 5.00 to 6.00 for the first, ≥ 6.00 for the second.

`Cc1cc2c(cc(N[C@H]3CC[C@@H](N)CC3)c3nnc(C)n32)n1Cc1ccccc1` [Example 218, cis-N-(6-Benzyl-1,7-dimethyl-6H-pyrrolo[2,3-e][1,2,4]triazolo[4,3-a]pyridin-4-yl)cyclohexane-1,4-diamine] and `CN[C@H]1CC[C@H](Nc2cc3c(cc(C)n3Cc3ccccc3)n3c(C)nnc23)CC1` [Example 219, trans-N-(6-Benzyl-1,7-dimethyl-6H-pyrrolo[2,3-e][1,2,4]triazolo[4,3-a]pyridin-4-yl)-N′-methylcyclohexane-1,4-diamine] cannot be ordered by pIC50: 5.00 to 6.00 for the first, ≥ 6.00 for the second.

`Cc1cc2c(cc(N[C@H]3CC[C@H](N(C)C)CC3)c3nnc(C)n32)n1Cc1ccccc1` [Example 220, trans-N′-(6-Benzyl-1,7-dimethyl-6H-pyrrolo[2,3-e][1,2,4]triazolo[4,3-a]pyridin-4-yl)-N,N-dimethylcyclohexane-1,4-diamine] and `Cc1cc2c(cc(N[C@H]3CC[C@@H](N(C)C)CC3)c3nnc(C)n32)n1Cc1ccccc1` [Example 222, cis-N′-(6-Benzyl-1,7-dimethyl-6H-pyrrolo[2,3-e][1,2,4]triazolo[4,3-a]pyridin-4-yl)-N,N-dimethylcyclohexane-1,4-diamine] fall in the same range of pIC50: 5.00 to 6.00 for the first, 5.00 to 6.00 for the second.

`CN[C@H]1CC[C@@H](Nc2cc3c(cc(C)n3Cc3ccccc3)n3c(C)nnc23)CC1` [Example 221, cis-N-(6-Benzyl-1,7-dimethyl-6H-pyrrolo[2,3-e][1,2,4]triazolo[4,3-a]pyridin-4-yl)-N′-methylcyclohexane-1,4-diamine] and `Cc1cc2c(cc(N[C@H]3C[C@H](O)C3)c3nnc(C)n32)n1Cc1ccccc1` [Example 247, trans-3-(6-Benzyl-1,7-dimethyl-6H-pyrrolo[2,3-e][1,2,4]triazolo[4,3-a]pyridin-4-ylamino)cyclobutanol] cannot be ordered by pIC50: 5.00 to 6.00 for the first, ≥ 6.00 for the second.

`Cc1nnc2ccc3c(cc(C#N)n3Cc3ccccc3)n12` [Example 227, 6-Benzyl-1-methyl-6H-pyrrolo[2,3-e][1,2,4]triazolo[4,3-a]pyridine-7-carbonitrile trifluoroacetate salt] and `Cc1cc2c(cc(Nc3ccncc3)c3nnc(C)n32)n1Cc1ccccc1` [Example 255, 6-Benzyl-1,7-dimethyl-N-(pyridin-4-yl)-6H-pyrrolo[2,3-e][1,2,4]triazolo[4,3-a]pyridin-4-amine] cannot be ordered by pIC50: ≥ 6.00 for the first, ≥ 6.00 for the second.

`Cc1cc2c(cc(NCC3CC3)c3nnc(C)n32)n1Cc1ccccc1` [Example 228, 6-Benzyl-N-(cyclopropylmethyl)-1,7-dimethyl-6H-pyrrolo[2,3-e][1,2,4]triazolo[4,3-a]pyridin-4-amine] and `Cc1cc2c(cc(NCC3CCC3)c3nnc(C)n32)n1Cc1ccccc1` [Example 241, 6-Benzyl-N-(cyclobutylmethyl)-1,7-dimethyl-6H-pyrrolo[2,3-e][1,2,4]triazolo[4,3-a]pyridin-4-amine] fall in the same range of pIC50: 5.00 to 6.00 for the first, 5.00 to 6.00 for the second.

`CNC(=O)Nc1cc2c(cc(C)n2Cc2ccccc2)n2c(C)nnc12` [Example 229, 1-(6-Benzyl-1,7-dimethyl-6H-pyrrolo[2,3-e][1,2,4]triazolo[4,3-a]pyridin-4-yl)-3-methylurea] and `CCNC(=O)Nc1cc2c(cc(C)n2Cc2ccccc2)n2c(C)nnc12` [Example 249, 1-(6-Benzyl-1,7-dimethyl-6H-pyrrolo[2,3-e][1,2,4]triazolo[4,3-a]pyridin-4-yl)-3-ethylurea] cannot be ordered by pIC50: ≥ 6.00 for the first, ≥ 6.00 for the second.

`Cc1cc2c(cc(NC(N)=O)c3nnc(C)n32)n1Cc1cccc(C(F)(F)F)c1` [Example 230, 1-(1,7-Dimethyl-6-(3-(trifluoromethyl)benzyl)-6H-pyrrolo[2,3-e][1,2,4]triazolo[4,3-a]pyridin-4-yl)urea] and `Cc1cc2c(cc(NC(N)=O)c3nnc(C)n32)n1Cc1cccc(F)c1` [Example 235, 1-(6-(3-Fluorobenzyl)-1,7-dimethyl-6H-pyrrolo[2,3-e][1,2,4]triazolo[4,3-a]pyridin-4-yl)urea] cannot be ordered by pIC50: ≥ 6.00 for the first, ≥ 6.00 for the second.

`Cc1cc2c(cc(NC(N)=O)c3nnc(C)n32)n1Cc1cccc(Cl)c1` [Example 231, 1-(6-(3-Chlorobenzyl)-1,7-dimethyl-6H-pyrrolo[2,3-e][1,2,4]triazolo[4,3-a]pyridin-4-yl)urea] and `Cc1cc2c(cc(NC(N)=O)c3nnc(C)n32)n1Cc1ccccc1` [Example 252, 1-(6-Benzyl-1,7-dimethyl-6H-pyrrolo[2,3-e][1,2,4]triazolo[4,3-a]pyridin-4-yl)urea] cannot be ordered by pIC50: ≥ 6.00 for the first, ≥ 6.00 for the second.

`Cc1cc2c(cc(NC(N)=O)c3nnc(C)n32)n1Cc1cc(F)cc(F)c1` [Example 233, 1-(6-(3,5-Difluorobenzyl)-1,7-dimethyl-6H-pyrrolo[2,3-e][1,2,4]triazolo[4,3-a]pyridin-4-yl)urea] and `Cc1cc2c(cc(NC(N)=O)c3nnc(C)n32)n1Cc1ccc(F)c(F)c1` [Example 234, 1-(6-(3,4-Difluorobenzyl)-1,7-dimethyl-6H-pyrrolo[2,3-e][1,2,4]triazolo[4,3-a]pyridin-4-yl)urea] cannot be ordered by pIC50: ≥ 6.00 for the first, ≥ 6.00 for the second.

`Cc1cc2c(cc(NC(N)=O)c3nnc(C)n32)n1Cc1ccc(F)cc1F` [Example 236, 1-(6-(2,4-Difluorobenzyl)-1,7-dimethyl-6H-pyrrolo[2,3-e][1,2,4]triazolo[4,3-a]pyridin-4-yl)urea] and `Cc1cc2c(cc(NC(N)=O)c3nnc(C)n32)n1Cc1cccc(F)c1F` [Example 237, 1-(6-(2,3-Difluorobenzyl)-1,7-dimethyl-6H-pyrrolo[2,3-e][1,2,4]triazolo[4,3-a]pyridin-4-yl)urea] cannot be ordered by pIC50: ≥ 6.00 for the first, ≥ 6.00 for the second.

`Cc1cc2c(cc(NC(N)=O)c3nnc(C)n32)n1Cc1ccccc1F` [Example 238, 1-(6-(2-Fluorobenzyl)-1,7-dimethyl-6H-pyrrolo[2,3-e][1,2,4]triazolo[4,3-a]pyridin-4-yl)urea] and `Cc1cc2c(cc(NC(N)=O)c3nnc(C)n32)n1Cc1c(F)cccc1F` [Example 254, 1-(6-(2,6-Difluorobenzyl)-1,7-dimethyl-6H-pyrrolo[2,3-e][1,2,4]triazolo[4,3-a]pyridin-4-yl)urea] cannot be ordered by pIC50: 5.00 to 6.00 for the first, ≥ 6.00 for the second.

`Cc1cc2c(cc(NC(N)=O)c3nnc(C)n32)n1Cc1ccc(F)cc1` [Example 239, 1-(6-(4-Fluorobenzyl)-1,7-dimethyl-6H-pyrrolo[2,3-e][1,2,4]triazolo[4,3-a]pyridin-4-yl)urea] and `Cc1cc2c(cc(NC(=O)N(C)C)c3nnc(C)n32)n1Cc1ccccc1` [Example 251, 3-(6-Benzyl-1,7-dimethyl-6H-pyrrolo[2,3-e][1,2,4]triazolo[4,3-a]pyridin-4-yl)-1,1-dimethylurea] cannot be ordered by pIC50: ≥ 6.00 for the first, ≥ 6.00 for the second.

`Cc1cc2c(cc(Nc3ccccn3)c3nnc(C)n32)n1Cc1ccccc1` [Example 240, 6-benzyl-1,7-Dimethyl-N-(pyridin-2-yl)-6H-pyrrolo[2,3-e][1,2,4]triazolo[4,3-a]pyridin-4-amine] and `Cc1cc2c(cc(Nc3ncc[nH]3)c3nnc(C)n32)n1Cc1ccccc1` [Example 253, 6-Benzyl-N-(1H-imidazol-2-yl)-1,7-dimethyl-6H-pyrrolo[2,3-e][1,2,4]triazolo[4,3-a]pyridin-4-amine] cannot be ordered by pIC50: 5.00 to 6.00 for the first, ≥ 6.00 for the second.

`Cc1cc2c(cc(NCC3CN(C(=O)OC(C)(C)C)C3)c3nnc(C)n32)n1Cc1ccccc1` [Example 243, tert-Butyl 3-((6-benzyl-1,7-dimethyl-6H-pyrrolo[2,3-e][1,2,4]triazolo[4,3-a]pyridin-4-ylamino)methyl)azetidine-1-carboxylate] and `Cc1cc2c(cc(NC(=O)OC(C)(C)C)c3nnc(C)n32)n1Cc1ccccc1` [Example 248, tert-Butyl 6-benzyl-1,7-dimethyl-6H-pyrrolo[2,3-e][1,2,4]triazolo[4,3-a]pyridin-4-ylcarbamate] cannot be ordered by pIC50: 5.00 to 6.00 for the first, ≥ 6.00 for the second.

`Cc1cc2c(cc(NCCCN(C)C)c3nnc(C)n32)n1Cc1ccccc1` [Example 245, N1-(6-Benzyl-1,7-dimethyl-6H-pyrrolo[2,3-e][1,2,4]triazolo[4,3-a]pyridin-4-yl)-N3,N3-dimethylpropane-1,3-diamine] and `Cc1cc2c(cc(NCCN(C)C)c3nnc(C)n32)n1Cc1ccccc1` [Example 246, N1-(6-Benzyl-1,7-dimethyl-6H-pyrrolo[2,3-e][1,2,4]triazolo[4,3-a]pyridin-4-yl)-N2,N2-dimethylethane-1,2-diamine] cannot be ordered by pIC50: ≥ 6.00 for the first, ≥ 6.00 for the second.

With `Cc1cc2c(cc(NC(=O)NC(C)C)c3nnc(C)n32)n1Cc1ccccc1` [Example 250, 1-(6-Benzyl-1,7-dimethyl-6H-pyrrolo[2,3-e][1,2,4]triazolo[4,3-a]pyridin-4-yl)-3-isopropylurea] the pIC50 was ≥ 6.00.
